The source made the active and inactive calls. No cut-off for these calls is given here.
Experiments:
[1] = system: HCT-116; assay: Induction of apoptosis in p53 -/- human HCT116 cells assessed as DNA fragmentation at 13.7 uM incubated for 24 hrs by agarose gel electrophoresis; format: functional, cell-based
[2] = target: T1, DNA polymerase kappa (Homo sapiens, UniProt Q9UBT6); assay: Inhibition of human DNA polymerase kappa using poly(dA)/oligo(dT)18 (A/T, 2/1)/dTTP DNA template-primer substrate measured at 37 degC for 60 mins
T1 sequence (Q9UBT6 whole entry): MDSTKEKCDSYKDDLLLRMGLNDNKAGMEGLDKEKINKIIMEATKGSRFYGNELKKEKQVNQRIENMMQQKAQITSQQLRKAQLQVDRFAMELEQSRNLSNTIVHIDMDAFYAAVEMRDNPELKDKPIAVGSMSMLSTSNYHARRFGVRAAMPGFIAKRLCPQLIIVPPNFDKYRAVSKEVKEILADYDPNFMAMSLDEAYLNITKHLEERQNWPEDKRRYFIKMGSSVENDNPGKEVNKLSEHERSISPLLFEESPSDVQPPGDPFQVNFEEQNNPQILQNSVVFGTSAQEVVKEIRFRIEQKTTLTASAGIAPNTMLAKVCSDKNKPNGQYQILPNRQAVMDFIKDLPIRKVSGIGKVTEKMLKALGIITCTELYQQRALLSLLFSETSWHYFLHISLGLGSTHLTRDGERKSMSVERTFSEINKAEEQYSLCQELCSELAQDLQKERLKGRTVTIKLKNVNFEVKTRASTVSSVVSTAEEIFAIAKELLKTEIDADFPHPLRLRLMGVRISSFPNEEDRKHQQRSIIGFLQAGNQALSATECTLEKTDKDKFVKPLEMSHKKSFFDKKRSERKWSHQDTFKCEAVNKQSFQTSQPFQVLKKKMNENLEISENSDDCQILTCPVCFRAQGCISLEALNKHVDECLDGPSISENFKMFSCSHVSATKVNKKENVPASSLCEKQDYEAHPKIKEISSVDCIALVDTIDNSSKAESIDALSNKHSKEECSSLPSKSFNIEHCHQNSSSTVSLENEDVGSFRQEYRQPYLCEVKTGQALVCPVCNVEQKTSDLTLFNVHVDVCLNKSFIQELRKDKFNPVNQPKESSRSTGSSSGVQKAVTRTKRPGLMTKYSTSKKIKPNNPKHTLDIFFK

[3] = target: T2, DNA polymerase subunit gamma-1 (Homo sapiens, UniProt P54098); assay: Inhibition of human DNA polymerase gamma using poly(dA)/oligo(dT)18 (A/T, 2/1)/dTTP DNA template-primer substrate measured at 37 degC for 60 mins
T2 sequence (P54098 whole entry): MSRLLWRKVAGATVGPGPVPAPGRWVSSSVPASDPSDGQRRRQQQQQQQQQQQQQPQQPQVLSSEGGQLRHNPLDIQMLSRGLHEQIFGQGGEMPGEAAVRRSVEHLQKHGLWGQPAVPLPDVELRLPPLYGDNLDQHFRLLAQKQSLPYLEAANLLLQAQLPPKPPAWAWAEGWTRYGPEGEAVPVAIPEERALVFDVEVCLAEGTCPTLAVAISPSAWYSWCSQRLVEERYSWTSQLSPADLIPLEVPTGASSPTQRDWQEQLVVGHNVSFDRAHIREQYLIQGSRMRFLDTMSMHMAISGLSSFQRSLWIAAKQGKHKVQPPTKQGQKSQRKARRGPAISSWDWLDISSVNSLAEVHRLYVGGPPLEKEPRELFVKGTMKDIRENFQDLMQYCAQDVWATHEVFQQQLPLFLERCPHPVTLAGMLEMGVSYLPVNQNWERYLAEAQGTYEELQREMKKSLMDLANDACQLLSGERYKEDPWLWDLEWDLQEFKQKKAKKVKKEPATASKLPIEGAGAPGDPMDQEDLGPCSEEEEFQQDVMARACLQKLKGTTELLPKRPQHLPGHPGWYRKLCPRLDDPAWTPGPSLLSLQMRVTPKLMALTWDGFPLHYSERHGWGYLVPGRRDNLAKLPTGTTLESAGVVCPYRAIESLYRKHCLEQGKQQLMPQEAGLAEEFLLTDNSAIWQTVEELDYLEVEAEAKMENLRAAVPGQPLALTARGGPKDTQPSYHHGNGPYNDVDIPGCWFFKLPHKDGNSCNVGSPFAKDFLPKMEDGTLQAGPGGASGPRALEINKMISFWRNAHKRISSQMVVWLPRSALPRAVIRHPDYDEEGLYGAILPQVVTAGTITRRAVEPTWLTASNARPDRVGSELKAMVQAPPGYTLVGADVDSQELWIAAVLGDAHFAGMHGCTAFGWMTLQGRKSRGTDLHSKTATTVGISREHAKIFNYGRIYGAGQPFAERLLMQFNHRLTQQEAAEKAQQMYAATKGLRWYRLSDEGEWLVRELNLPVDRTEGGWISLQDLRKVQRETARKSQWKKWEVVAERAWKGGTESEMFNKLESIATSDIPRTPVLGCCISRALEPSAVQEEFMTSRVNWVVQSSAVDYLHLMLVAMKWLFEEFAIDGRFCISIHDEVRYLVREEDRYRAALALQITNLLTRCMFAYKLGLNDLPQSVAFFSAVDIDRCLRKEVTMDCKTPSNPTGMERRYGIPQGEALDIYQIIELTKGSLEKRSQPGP

`CC[C@H](C)[C@H](NC(=O)[C@H](Cc1ccc(O)cc1)NC(=O)OC(C)(C)C)C(=O)Nc1cccc2ccccc12` was tested, and the Activity [1] was “Active”, the IC50 [2] was greater than 200 µM and the IC50 [3] was greater than 200 µM.

Reference: ChEMBL document CHEMBL2331167, “Inhibitory effect of novel somatostatin peptide analogues on human cancer cell growth based on the selective inhibition of DNA polymerase β” (Bioorg Med Chem, 2013)
